In the assay the target is T1, P2X purinoceptor 2 (Rattus norvegicus, UniProt P49653).
T1 sequence (P49653 whole entry): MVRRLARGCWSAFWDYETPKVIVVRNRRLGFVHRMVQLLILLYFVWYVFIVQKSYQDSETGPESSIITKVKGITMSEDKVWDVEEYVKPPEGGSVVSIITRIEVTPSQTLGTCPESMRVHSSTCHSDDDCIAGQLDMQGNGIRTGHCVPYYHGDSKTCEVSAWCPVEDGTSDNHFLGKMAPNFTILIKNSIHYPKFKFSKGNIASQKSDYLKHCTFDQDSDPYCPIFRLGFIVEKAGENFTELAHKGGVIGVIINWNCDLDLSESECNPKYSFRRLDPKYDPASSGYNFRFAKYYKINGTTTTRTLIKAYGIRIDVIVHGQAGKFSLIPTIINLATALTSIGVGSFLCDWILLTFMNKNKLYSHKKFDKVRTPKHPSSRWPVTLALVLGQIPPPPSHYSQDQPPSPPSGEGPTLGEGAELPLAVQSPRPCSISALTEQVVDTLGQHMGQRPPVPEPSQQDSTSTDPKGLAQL
In words: Antagonist activity against rat […] receptor expressed in Xenopus laevis oocyte assessed as inhibition of alpha, beta-meATP-induced inward current by two-electrode voltage-clamp electrophysiology.

In BindingDB's records for doi:10.1021/jm1012193 (University of Bonn, 2012) one finds IC50 data, which are given here for one molecule.

Structures are written as SMILES.

`Nc1ncnc2c1ncn2C1OC(COP(=O)(O)OP(=O)(O)OP(=O)(O)O)C2OC3(OC21)C([N+](=O)[O-])=CC([N+](=O)[O-])=CC3=[N+]([O-])[O-]` (stereo not drawn) [sodium(3a'R,4'R,6'R,6a'R)-4'-(6-amino-9H-purin-9-yl)-2,6-dinitro-6'-((oxido(oxido(phosphonatooxy)phosphoryloxy)phosphoryloxy)methyl)-3a',4',6',6a'-tetrahydrospiro[cyclohexa[2,5]diene-1,2'-furo[3,4-d][1,3]dioxole]-4-ylideneazinate]: the IC50 came to 4 µM.
